From patent US7504117B2, “Extract of Nelumbinis Semen for the treatment of depression” (Purimed Co., Ltd., priority 2003, dated 2009)

Key:
Format in all cases: in vivo
[1] = system: IL-2; assay: Blood IL-2 concentration (luminometric immunoassay) in rats; settings: rat blood
Procedure: (1) 100 μl of assay diluent QD6-23 were aliquotted onto a microplate strip;
(2) 50 μl of each sample and a standard were aliquotted onto the strip;
(3) the strip was incubated with shaking at room temperature for 2 hrs;
(4) the strip was washed four times;
(5) 200 μl of an IL-2 conjugate was aliquotted onto the strip, and the strip was incubated with shaking at room temperature for 3 hrs;
(6) 200 μl of a substrate (luminol+hydrogen peroxide) was aliquotted onto the strip, and the strip was incubated at room temperature for 20-40 min;
(7) emitted light was measured using a luminometer; and
(8) IL-2 concentrations were determined using a standard quantitative curve.

[2] = system: lymphocytes; assay: Lymphocyte cell number in rat blood (automatic analyzer)
From the text: Fourthly, changes in cell number of lymphocytes, which is a representative marker to determine whether the immune suppression has been overcome, according to administration of the Nelumbinis Semen extract, was examined as follows. After blood samples were collected from rats, changes in lymphocyte cell number were examined by the following method.
When diluted blood corpuscles are suspended in an electrolyte solution (Isoton sol.) that is a separate […], the electrolyte suspension of particles is suctioned for 4 sec through an aperture with a predetermined size. The aperture is placed between an internal electrode and an external electrode, and a current flows between the electrodes. When particles pass through the aperture between the two electrodes, resistance increases while voltage decreases. The difference between decreased voltage and ground voltage is expressed as height by a threshold circuit. The number of pulses indicates the number of particles, and the amplitude of pulses is in proportion to the volume of corpulscles.
2. Assay Method: Automatic Analyzer
3. Machine Used: ADVIA120, Bayer, USA

[3] = system: CREB, BDNF and trkB genes; assay: Oligonucleotide microarray gene expression in cerebral frontal cortex; settings: depression-induced animal
From the text: Total RNA was isolated from the cerebral frontal cortex, and double-stranded cDNA was synthesized using the isolated RNA and an oligo (dT) 24-T7 primer. cRNA was synthesized by in vitro transcription using the synthesized cDNA, and was biotin-labeled and applied to an oligonucleotide microarray to determine gene expression patterns in each test group.

[4] = system: 5-HT and NE neurotransmitters; assay: 5-HT and NE levels in chronic CMS model by microdialysis and HPLC-ECD
Procedure: Also, according to a biochemical method, the therapeutic efficacy of a candidate drug was primarily examined by measuring changes in 5-HT and Norepinephrine (NE) levels in a chronic CMS model by microdialysis and HPLC-ECD. Catecholamine content was measured using an HPLC system equipped with an electrochemical detector. A mobile phase containing 0.05 M monobasic sodium phosphate, 0.1 N sodium acetic acetate and 1% methanol was adjusted to pH 4.4 with a phosphate buffer for HPLC. […] was composed of a Supelcosil LC-8-DB 3-μm column (150×4.6 mm, Supelco, Bellefonte, Pa.) protected by an LC-18 guard column.

[5] = system: CREB, BDNF and trkB proteins; assay: 2-DE of CREB, BDNF and trkB proteins in rat cerebral frontal cortex
Procedure: Fourthly, an increase in the antidepressive markers, CREB, BDNF and trkB proteins, was examined in the rat cerebral frontal cortex by 2-DE, as follows. A behavioral test in rats was carried out for a period of three weeks, and the rats were administered with each drug. The brain frontal cortex was excised and centrifuged, and the supernatant was recovered. Each sample was mixed with an IEF sample buffer and loaded onto an IEF gel. Proteins were separated according to isoelectric point by isoelectric focusing (IEF) in the first dimension and according to molecular weight by SDS-PAGE at 100-200 V for about 1-2 hrs in the second dimension. The gel was stained by a Gel-Code Blue staining method and evaluated for elevated or newly emerged proteins by the antidepressive substances. The elevated or newly emerged proteins by the antidepressive substances were subjected to mass spectrometry.

[6] = system: cortisol; assay: Urinary cortisol concentration (125I-cortisol assay) in rats; settings: rat urine
Procedure: First, changes in concentrations of cortisol, which is a representative marker to determine whether the immune suppression has been overcome, according to administration of the Nelumbinis Semen extract were examined, as follows. After urine samples were collected from rats,
(1) 1.0 ml of urine was placed into a tube with a cap, 2.0 ml dichloromethane was added to the tube, and the tube was covered with the cap with caution;
(2) the mixture was vortexed for 5-10 min;
(3) the mixture was centrifuged at 1500×g (rpm), the upper layer was aspirated, and 50 μl of the lower layer were aliquotted into coated tubes;
(4) samples were evaporated for dryness.
Urinary cortisol concentrations were measured as follows.
(1) The coated tubes were individually labeled with NSB, Std (A-F), a control (CON6 No. 5) and sample numbers (for NSB, a green tube was used).
(2) 25 μl of each of NSB, Std(A-F), a control (CON6 No. 5) and samples was added to the corresponding tube (free cortisol was added to the completely dried coated tube, and 25 μl of Std. A was added to the NSB tube).
(3) 1.0 ml of ^125I-cortisol was added to the tubes, followed by mixing.
(4) The tubes were incubated in a water bath at 37° C. for 45 min and aspirated.
(5) After the content of the tubes was completely aspirated, radioactivity was measured for at least 1 min using a […].

[7] = system: CREB, BDNF and trkB proteins; assay: Western blotting of CREB, BDNF and trkB proteins in rat cerebral frontal cortex
Procedure: Thirdly, an increase in the antidepressive markers, CREB, BDNF and trkB proteins, was examined in the rat cerebral frontal cortex by Western blotting, as follows. A behavioral test in rats was carried out for a period of three weeks, and the rats were administered with each drug. The brain frontal cortex was excised and centrifuged, and the supernatant was recovered. Each sample was mixed with a SDS-PAGE sample buffer to reduce proteins and boiled to denature proteins. Samples were loaded onto a SDS-PAGE (sodium dodecyl sulfate poly acrylamide gel electrophoresis) gel and run at 100-200 V for about 1-2 hrs. The SDS-PAGE gel was transferred onto a PVDF or nitrocellulose membrane by electro-transferation. The membrane was incubated with a primary antibody for a target protein, washed and incubated with a secondary antibody. Then, the target protein was detected by an enhanced chemiluminescent method.

[8] = system: WBC; assay: WBC counting in rat blood (volume, conductivity, light scattering)
Procedure: Thirdly, changes in WBC cell number, which is a representative marker to determine whether the immune suppression has been overcome, according to administration of the Nelumbinis Semen extract, was examined, as follows. After blood samples were collected from rats, cell volume, conductivity and light scattering were measured.
Cell volume was measured according to the Coulter Principle, which is universally recognized as a reference method for sizing of volumes. An aperture between two electrodes is placed in a cell flow, and direct current flows between the electrodes. When WBC maintained at nearly natural states passes through the aperture, electrical resistance to the direct current flow increases, thus generating a voltage pulse being in proportion to cell volumes. The size of the pulse is one of the distinct features allowing determination of the type of WBC. However, to distinguish between two types of cells with similar size, a different phenotype allowing the distinction of two types of cells should be measured. For example, mature basophils and small lymphocytes are about 9-12 jjm in diameter, and immature prolymphocytes and mature neutrophils are 12-14 μm in diameter. Different types of cells with similar size are difficult to determine based on only their size, and thus, in this case, conductivity and light scattering are simultaneously measured. […]

Compound: CNCCC(Oc1ccc(C(F)(F)F)cc1)c1ccccc1 (stereo not drawn) [Prozac, fluoxetine]
- IL-2 concentrations [1]: levels similar to a normal group
- cell number of lymphocytes [2]: levels similar to a normal group
- expression level of BDNF gene [3]: significantly increase
- expression level of CREB gene [3]: significantly increase
- expression level of trkB gene [3]: significantly increase
- level of 5-HT [4]: significantly increase
- level of NE [4]: significantly increase
- protein level of BDNF [5]: significantly increase
- protein level of CREB [5]: significantly increase
- protein level of trkB [5]: significantly increase
- cortisol concentrations [6]: levels similar to a normal group
- protein level of BDNF [7]: significantly increase
- protein level of CREB [7]: significantly increase
- protein level of trkB [7]: significantly increase
- cell number of WBC [8]: levels similar to a normal group
